In US12612372B2, “Oxopyridazinyl-phenyl-carbonohydrazonoyl dicyanide compound and use thereof” (KOREA INSTITUTE OF SCIENCE AND TECHNOLOGY, priority 2020, dated 2026):
Read-outs that look alike come from different tables or passages of the source.

What was measured:
tau protein = target: T1, tau protein (Homo sapiens, UniProt P10636); experiment: Tau-BiFC cell model, Forskolin-induced tau protein aggregation; type: cell-based; conditions: for Tau BiFC in cells Response (%, @10 μM): 10 μM compound, BiFC fluorescence relative to Forskolin-only group (100% tau protein-aggregated state)
T1 construct: fused on or other part: Split Venus fragments VN173 and VC155, each fused to one copy of tau as BiFC reporter halves
Protocol: (§1) In order to select novel tau protein aggregation—inhibiting substances, tau-BiFC cell model, in which formation of tau oligomers in living cells is easily observed, was used. Tau-BiFC cells were aliquoted into a 384-well plate. […] After 48 hours, nuclei in the cells were stained using Hoechst (at a treatment concentration of 2 μg/mL), and BiFC fluorescence intensity was automatically measured using Operetta (PerkinElmer) to count stained nuclei in each well out of the entire well plate. […] Furthermore, the degree of cytotoxicity induced by the newly synthesized compound was also measured based on the 100% cell viability of the group treated only with Forskolin as a reference, and the cytotoxicity value of each compound was calculated using the equation “(number of stained nuclei in group treated with compound/number of stained nuclei in group treated with Forskolin)×100”.
(§2) After 48 hours, tau protein aggregation reaction and degrees of cytotoxicity were analyzed by observing images of the cells. IC50 and toxicity of the compounds were analyzed by nonlinear regression analysis of Prism software (Graph Pad).

Tau-BiFC cells = experiment: Cell viability (stained nuclei count) in tau-BiFC cells
Protocol: as §1, §2

[1] = Liver microsome stability, dog; type: in vitro ADME; conditions: dog liver microsomes 0.25 mg/mL, 1 μM compound, 37° C., 30 minutes, NADPH
Protocol: (§3) The stability of liver microsomes due to the compounds prepared according to Examples 1 to 14 was confirmed. Specifically, four types of liver microsomes (human, dog, rat, and mouse, each 0.25 mg/mL), a 0.1 M phosphate buffer solution (pH 7.4), and each of the compounds at a concentration of 1 μM were mixed and pre-cultured at 37° C. for 5 minutes and further cultured at 37° C. for 30 minutes together with an NADPH generation system solution added thereto. Thereafter, the reaction was terminated by adding an acetonitrile solution containing an internal standard material (chlorpropamide) and centrifuged for 5 minutes (14,000 rpm, 4° C.), and then a supernatant was injected into an LC-MS/MS system for analysis of substrate drugs to thereby evaluate metabolic stability due to 8 types of compounds.
(§4) The amount of the substrate remaining after the reaction was analyzed using the Shimadzu Nexera XR system and TSQ Vantage (Thermo). In an HPLC column, Kinetex XB-C18 (2.1 mm×100 mm, particle size of 2.6 μm; Phenomenex, USA) was used, and mobile phases were (A) distilled water containing 0.1% formic acid and (B) acetonitrile containing 0.1% formic acid. Analyst software (version 1.6.3) and Xcalibur (version 1.6.1) were used for data analysis.

CYP1A2 = target: T2, CYP1A2 (Homo sapiens, UniProt P05177); experiment: CYP coenzyme activity in human liver microsomes, CYP1A2; type: in vitro ADME; conditions: 10 μM compound, human liver microsomes 0.25 mg/mL, substrate phenacetin, 15 minutes
T2 construct: human liver microsomes (0.25 mg/mL); from tissue; host or cells: human liver microsomes
T2 sequence (P05177 1-516): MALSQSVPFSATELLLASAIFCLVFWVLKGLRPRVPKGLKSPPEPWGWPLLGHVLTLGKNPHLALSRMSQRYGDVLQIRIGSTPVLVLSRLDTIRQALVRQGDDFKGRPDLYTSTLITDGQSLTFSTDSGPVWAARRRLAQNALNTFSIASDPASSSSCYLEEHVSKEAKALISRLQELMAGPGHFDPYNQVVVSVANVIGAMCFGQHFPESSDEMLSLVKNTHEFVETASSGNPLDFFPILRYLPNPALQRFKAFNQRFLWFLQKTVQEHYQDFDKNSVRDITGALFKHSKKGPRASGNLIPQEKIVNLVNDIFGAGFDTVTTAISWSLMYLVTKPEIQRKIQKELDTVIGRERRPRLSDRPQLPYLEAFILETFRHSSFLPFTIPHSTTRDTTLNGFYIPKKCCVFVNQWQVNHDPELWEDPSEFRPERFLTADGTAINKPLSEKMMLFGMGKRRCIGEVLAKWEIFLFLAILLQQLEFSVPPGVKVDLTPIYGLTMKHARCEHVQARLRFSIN
Protocol: (§5) Specifically, human liver microsomes (0.25 mg/mL), a 0.1 M phosphate buffer solution (pH 7.4), a substrate drug cocktail of five types of drug metabolism enzymes (50 μM phenacetin, 10 μM diclofenac, 100 μM S-mephenytoin, 5 μM dextromethorphan, and 2.5 μM midazolam), and the compound at a concentration of 0 μM or 10 μM were mixed and pre-cultured at 37° C. for 5 minutes, and then further cultured at 37° C. for 15 minutes together with an NADPH generation system solution added thereto. Thereafter, the reaction was terminated by adding an acetonitrile solution containing an internal standard material (terfenadine) and centrifuged for 5 minutes (14,000 rpm, 4° C.), and then a supernatant was injected into an LC-MS/MS system for simultaneous analysis of metabolites of the substrate drugs to thereby evaluate the inhibitory effects on drug metabolism.
(§6) Metabolites of each CYP coenzyme indicator drug generated through the reaction were analyzed using the Shimadzu Nexera XR system and TSQ Vantage (Thermo). In an HPLC column, Kinetex C18 (2.1 mm×100 mm, 2.6 μm particle size; Phenomenex, USA) was used, and mobile phases were (A) distilled water containing 0.1% formic acid and (B) acetonitrile containing 0.1% formic acid, and a gradient program shown in Table 3 was applied thereto.
(§7) The generated metabolites were quantified using a multiple reaction monitoring (MRM) quantification mode, and Xcalibur (version 1.6.1) was used for data analysis. In order to express the inhibitory effects of the novel compounds prepared according to the examples of the present invention on CYP coenzyme activity, CYP coenzyme activities (%) with respect to the control group not treated with any compound are shown in Table 4 below.

[2] = Liver microsome stability, human; type: in vitro ADME; conditions: human liver microsomes 0.25 mg/mL, 1 μM compound, 37° C., 30 minutes, NADPH
Protocol: as §3, §4

CYP2C19 = target: T3, CYP2C19 (Homo sapiens, UniProt P33261); experiment: CYP coenzyme activity in human liver microsomes, CYP2C19; type: in vitro ADME; conditions: 10 μM compound, human liver microsomes 0.25 mg/mL, substrate S-mephenytoin, 15 minutes
T3 construct: human liver microsomes (0.25 mg/mL); from tissue; host or cells: human liver microsomes
Protocol: as §5, §6, §7

CYP3A4 = target: T4, CYP3A4 (Homo sapiens, UniProt P08684); experiment: CYP coenzyme activity in human liver microsomes, CYP3A4; type: in vitro ADME; conditions: 10 μM compound, human liver microsomes 0.25 mg/mL, substrate midazolam, 15 minutes
T4 construct: human liver microsomes (0.25 mg/mL); from tissue; host or cells: human liver microsomes
Protocol: as §5, §6, §7

[3] = Liver microsome stability, rat; type: in vitro ADME; conditions: rat liver microsomes 0.25 mg/mL, 1 μM compound, 37° C., 30 minutes, NADPH
Protocol: as §3, §4

CYP2D6 = target: T5, CYP2D6 (Homo sapiens, UniProt P10635); experiment: CYP coenzyme activity in human liver microsomes, CYP2D6; type: in vitro ADME; conditions: 10 μM compound, human liver microsomes 0.25 mg/mL, substrate dextromethorphan, 15 minutes
T5 construct: human liver microsomes (0.25 mg/mL); from tissue; host or cells: human liver microsomes
Protocol: as §5, §6, §7

[4] = Liver microsome stability, mouse; type: in vitro ADME; conditions: mouse liver microsomes 0.25 mg/mL, 1 μM compound, 37° C., 30 minutes, NADPH
Protocol: as §3, §4

CYP2C9 = target: T6, CYP2C9 (Homo sapiens, UniProt P11712); experiment: CYP coenzyme activity in human liver microsomes, CYP2C9; type: in vitro ADME; conditions: 10 μM compound, human liver microsomes 0.25 mg/mL, substrate diclofenac, 15 minutes
T6 construct: human liver microsomes (0.25 mg/mL); from tissue; host or cells: human liver microsomes
Protocol: as §5, §6, §7

[5] = 10 μM compound, stained nuclei relative to Forskolin-only group (100%), 48 hours
[6] = tau-BiFC cells, Forskolin 30 μM, 48 hours, read-out: Tau BiFC in cells IC50

T1 sequence (P10636 2-441 isoform P10636-8 limits assumed): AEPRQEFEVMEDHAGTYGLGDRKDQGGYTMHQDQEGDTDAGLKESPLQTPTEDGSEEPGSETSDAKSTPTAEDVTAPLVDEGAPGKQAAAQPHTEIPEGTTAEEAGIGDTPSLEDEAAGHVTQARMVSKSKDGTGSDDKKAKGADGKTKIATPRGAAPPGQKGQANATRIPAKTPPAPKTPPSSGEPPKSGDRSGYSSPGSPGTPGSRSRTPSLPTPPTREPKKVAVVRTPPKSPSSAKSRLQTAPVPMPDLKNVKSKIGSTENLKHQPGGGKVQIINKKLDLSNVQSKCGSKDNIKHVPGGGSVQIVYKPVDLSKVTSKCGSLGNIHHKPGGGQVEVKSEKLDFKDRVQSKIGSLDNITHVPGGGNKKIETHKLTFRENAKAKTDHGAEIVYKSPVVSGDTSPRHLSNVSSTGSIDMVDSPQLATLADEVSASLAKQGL
T5 sequence (P10635 whole entry): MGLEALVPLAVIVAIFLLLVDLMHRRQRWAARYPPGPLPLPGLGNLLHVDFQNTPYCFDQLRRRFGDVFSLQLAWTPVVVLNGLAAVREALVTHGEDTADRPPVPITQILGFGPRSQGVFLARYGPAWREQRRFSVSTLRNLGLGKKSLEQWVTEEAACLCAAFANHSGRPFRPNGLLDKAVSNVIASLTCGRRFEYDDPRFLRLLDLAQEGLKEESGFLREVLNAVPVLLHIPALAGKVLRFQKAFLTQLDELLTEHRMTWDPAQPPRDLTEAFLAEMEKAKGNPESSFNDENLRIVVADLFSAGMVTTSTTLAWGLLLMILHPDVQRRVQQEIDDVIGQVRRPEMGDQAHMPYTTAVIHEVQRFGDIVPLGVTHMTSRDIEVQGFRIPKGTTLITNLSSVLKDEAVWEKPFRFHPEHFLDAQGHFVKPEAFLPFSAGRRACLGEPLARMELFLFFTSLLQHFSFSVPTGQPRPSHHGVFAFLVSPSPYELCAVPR
T3 sequence (P33261 whole entry): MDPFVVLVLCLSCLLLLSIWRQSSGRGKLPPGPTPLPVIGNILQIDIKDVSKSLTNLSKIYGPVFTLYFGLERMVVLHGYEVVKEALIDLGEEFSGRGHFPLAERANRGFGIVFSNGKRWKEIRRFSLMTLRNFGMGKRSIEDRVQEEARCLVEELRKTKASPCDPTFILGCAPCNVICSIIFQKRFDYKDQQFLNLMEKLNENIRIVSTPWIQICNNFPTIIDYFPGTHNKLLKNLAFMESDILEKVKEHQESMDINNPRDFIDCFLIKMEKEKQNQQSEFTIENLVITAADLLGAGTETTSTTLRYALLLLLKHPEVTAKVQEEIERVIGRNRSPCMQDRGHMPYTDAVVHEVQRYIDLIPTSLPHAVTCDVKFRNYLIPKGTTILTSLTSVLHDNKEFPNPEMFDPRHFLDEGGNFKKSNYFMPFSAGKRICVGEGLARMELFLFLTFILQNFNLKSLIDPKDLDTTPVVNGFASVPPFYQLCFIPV
T4 sequence (P08684 whole entry): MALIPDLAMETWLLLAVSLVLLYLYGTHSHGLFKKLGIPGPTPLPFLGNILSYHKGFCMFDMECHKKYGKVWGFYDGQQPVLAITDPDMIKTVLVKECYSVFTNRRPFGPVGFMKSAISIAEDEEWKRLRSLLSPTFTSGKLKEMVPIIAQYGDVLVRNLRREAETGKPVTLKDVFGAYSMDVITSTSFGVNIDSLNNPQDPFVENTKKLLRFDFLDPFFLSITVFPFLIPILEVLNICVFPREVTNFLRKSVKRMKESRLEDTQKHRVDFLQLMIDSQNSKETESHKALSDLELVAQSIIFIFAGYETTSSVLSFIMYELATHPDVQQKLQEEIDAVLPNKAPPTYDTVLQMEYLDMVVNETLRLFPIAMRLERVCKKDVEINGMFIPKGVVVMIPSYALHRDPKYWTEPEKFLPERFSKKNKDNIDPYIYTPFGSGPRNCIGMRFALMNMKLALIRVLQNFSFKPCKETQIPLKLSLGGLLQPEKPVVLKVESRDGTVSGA
T6 sequence (P11712 whole entry): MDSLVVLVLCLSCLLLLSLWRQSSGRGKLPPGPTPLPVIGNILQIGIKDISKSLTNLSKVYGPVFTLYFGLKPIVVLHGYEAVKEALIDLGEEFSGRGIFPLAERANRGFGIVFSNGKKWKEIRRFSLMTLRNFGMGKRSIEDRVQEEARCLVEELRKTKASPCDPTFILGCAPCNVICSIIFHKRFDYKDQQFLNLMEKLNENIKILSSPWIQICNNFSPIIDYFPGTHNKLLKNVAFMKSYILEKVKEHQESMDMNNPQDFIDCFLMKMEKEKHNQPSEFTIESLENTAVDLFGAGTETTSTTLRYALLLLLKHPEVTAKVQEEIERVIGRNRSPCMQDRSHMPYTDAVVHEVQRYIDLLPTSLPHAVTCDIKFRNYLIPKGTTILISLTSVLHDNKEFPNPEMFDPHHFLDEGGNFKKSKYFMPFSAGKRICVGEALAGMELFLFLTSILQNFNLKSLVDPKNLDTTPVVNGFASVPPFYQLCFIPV

## N#CC(C#N)=NNc1ccc(-c2ccc(=O)[nH]n2)cc1 [Comparative Example 1, reference compound]
Tau protein; 48 hours
  Tau BiFC in cells Response (%, @10 μM): 10.1%
Tau protein; Tau BiFC in cells IC50, tau-BiFC cells, Forskolin 30 μM, 48 hours
  IC50: 16.8 µM
Tau-BiFC cells; [5]
  Cell viability (%, @10 μM): 130.3%

## Cc1cc(=O)[nH]nc1-c1ccc(NN=C(C#N)C#N)cc1 [Comparative Example 2, reference compound]
Tau protein; 48 hours
  Tau BiFC in cells Response (%, @10 μM): 1.8%
Tau protein; [6]
  IC50: 3.5 µM
Tau-BiFC cells; [5]
  Cell viability (%, @10 μM): 128.6%

## Cc1cc(-c2ccc(NN=C(C#N)C#N)cc2)n[nH]c1=O [Comparative Example 3, reference compound]
Tau protein; 48 hours
  Tau BiFC in cells Response (%, @10 μM): 37.11%
Tau protein; [6]
  IC50: > 10 µM
Tau-BiFC cells; [5]
  Cell viability (%, @10 μM): 113.1%

## CC1CC(=O)NN=C1c1ccc(NN=C(C#N)C#N)cc1 (stereo not shown) [Comparative Example 4, reference compound]
Tau protein; 48 hours
  Tau BiFC in cells Response (%, @10 μM): 45.7%
Tau protein; [6]
  IC50: > 10 µM
Tau-BiFC cells; [5]
  Cell viability (%, @10 μM): 120.3%

## N#CC(C#N)=NNc1ccc(-n2ncccc2=O)cc1 [Comparative Example 5, reference compound]
Tau protein; 48 hours
  Tau BiFC in cells Response (%, @10 μM): 35.1%
Tau protein; [6]
  IC50: > 10 µM
Tau-BiFC cells; [5]
  Cell viability (%, @10 μM): 124.2%

## Cc1ccc(=O)n(-c2ccc(NN=C(C#N)C#N)cc2)n1 [Comparative Example 6, reference compound]
Tau protein; 48 hours
  Tau BiFC in cells Response (%, @10 μM): 46.7%
Tau protein; [6]
  IC50: > 10 µM
Tau-BiFC cells; [5]
  Cell viability (%, @10 μM): 114.9%

## Cc1cnn(-c2ccc(NN=C(C#N)C#N)cc2)c(=O)c1 [Comparative Example 7, reference compound]
Tau protein; 48 hours
  Tau BiFC in cells Response (%, @10 μM): 19.4%
Tau protein; [6]
  IC50: 4.5 µM
Tau-BiFC cells; [5]
  Cell viability (%, @10 μM): 102.3%

## Cc1ccnn(-c2ccc(NN=C(C#N)C#N)cc2)c1=O [Comparative Example 8, reference compound]
Tau protein; 48 hours
  Tau BiFC in cells Response (%, @10 μM): 0%
Tau protein; [6]
  IC50: 2.5 µM
Tau-BiFC cells; 48 h, 10 μM
  Cell viability (%, @10 μM): 110.1%

## CC(C)N1N=C(c2ccc(NN=C(C#N)C#N)cc2)CCC1=O [Example 1, (4-(1-isopropyl-6-oxo-1,4,5,6-tetrahydropyridazin-3-yl)phenyl)carbonohydrazonoyl dicyanide]
[1]
  Dog (%) amount remaining after the reaction: >100%
CYP1A2
  CYP1A2 activity (%) with respect to control group not treated with any compound: 79%
[2]
  Human (%) amount remaining after the reaction: 6.4%
CYP2C19
  CYP2C19 activity (%) with respect to control group not treated with any compound: 70.8%
CYP3A4
  CYP3A4 activity (%) with respect to control group not treated with any compound: 81.7%
[3]
  Rat (%) amount remaining after the reaction: >100%
CYP2D6
  CYP2D6 activity (%) with respect to control group not treated with any compound: 74.6%
[4]
  Mouse (%) amount remaining after the reaction: >100%
CYP2C9
  CYP2C9 activity (%) with respect to control group not treated with any compound: 70.4%
Tau-BiFC cells; [5]
  Cell viability (%, @10 μM): 110.1%

## CC1CC(=O)N(C(C)C)N=C1c1ccc(NN=C(C#N)C#N)cc1 (stereo not shown) [Example 2, (4-(1-isopropyl-4-methyl-6-oxo-1,4,5,6-tetrahydropyridazin-3-yl)phenyl)carbonohydrazonoyl dicyanide]
[1]
  Dog (%) amount remaining after the reaction: >100%
CYP1A2
  CYP1A2 activity (%) with respect to control group not treated with any compound: 80.5%
[2]
  Human (%) amount remaining after the reaction: 63.6%
CYP2C19
  CYP2C19 activity (%) with respect to control group not treated with any compound: 64.7%
CYP3A4
  CYP3A4 activity (%) with respect to control group not treated with any compound: 74.6%
Tau protein
  IC50: 0.4 µM
Tau protein; 48 hours
  Tau BiFC in cells Response (%, @10 μM): 0%
[3]
  Rat (%) amount remaining after the reaction: 92.5%
CYP2D6
  CYP2D6 activity (%) with respect to control group not treated with any compound: 84.9%
[4]
  Mouse (%) amount remaining after the reaction: 89%
CYP2C9
  CYP2C9 activity (%) with respect to control group not treated with any compound: 65.7%
Tau-BiFC cells; [5]
  Cell viability (%, @10 μM): 102.8%

## COc1ccc(N2N=C(c3ccc(NN=C(C#N)C#N)cc3)C(C)CC2=O)cc1 (stereo not shown) [Example 7, (4-(1-(4-methoxyphenyl)-4-methyl-6-oxo-1,4,5,6-tetrahydropyridazin-3-yl)phenyl)carbonohydrazonoyl dicyanide]
Tau protein
  IC50: 0.94 µM
Tau protein; 48 hours
  Tau BiFC in cells Response (%, @10 μM): 2.3%
Tau-BiFC cells; [5]
  Cell viability (%, @10 μM): 89.3%

## C[C@@H]1CC(=O)NN=C1c1ccc(NN=C(C#N)C#N)cc1 [Levosimendan, reference compound]
Tau protein; 48 hours
  Tau BiFC in cells Response (%, @10 μM): 9.58%
Tau protein; [6]
  IC50: 1.44 µM
Tau-BiFC cells; [5]
  Cell viability (%, @10 μM): 73.21%
